Measured values as given in patent publication US10869931B2, “Polyethylene glycol-modified angiogenesis inhibitor HM-1 and application thereof” (NANJING ANJI BIOLOGICAL TECHNOLOGY CO.,LTD, priority 2016, dated 2020).
Marks after values point to notes of the source that are not given here. Where no end group is shown, it is not given here.

Tests used:
Lung cancer tumor cells = experiment: MTT proliferation inhibition, lung cancer cells; format: cell-based, human; set-up: concentration or dose not given beside the values; conditions: 48 h
Method: The activity of mPEG-HM-1 to inhibit the growth of various tumor cells was examined by MTT assay. The tumor cells were cultured to a concentration of 90% or more in a 37° C., 5% CO2 incubator and collected by trypsinization. The cells were resuspended in the culture medium and counted under a microscope to adjust the cell concentration to 2×10^4 cells/mL, the cell suspension was inoculated into a 96-well plate at 100 μL/well and incubated overnight at 37° C. in a 5% CO2 incubator. mPEG-HM-1 was diluted with the culture solution to each predetermined concentration. Docetaxel is diluted to the final concentration with the culture medium. After the cells were fully attached, each dilution was added to a 96-well plate (100 μL/well). The mPEG-HM-1 dilution was added as a drug-administered group, and docetaxel was added as a positive control group, and a culture solution without any drug was used as a negative control group. Incubate for 48 h at 37° C. in a 5% CO2 incubator. 5 mg/mL of MTT was added to a 96-well plate at 20 μL per well, and incubation was continued for 4 hours. The medium was aspirated, dissolved in 150 μL of DMSO per well, and gently mixed by shaking for 10 min. The absorbance was measured at a measurement wavelength of 570 nm and a reference wavelength of 630 nm using a microplate reader, and the rate of growth inhibition (proliferation inhibition, PI) was calculated. The formula is as follows: PI (%)=1−administration group/negative group
The test was repeated 3 times independently, and the results obtained by the test were expressed as mean±SD, and the test results are shown in Table 15 to Table 18.

[1] = test system: human retinal vascular endothelial cells (HRCEC); experiment: MTT proliferation of human retinal vascular endothelial cells; format: cell-based; conditions: 48 h; for Inhibition rate: HRCEC proliferation; for A570 nm-A630 nm: HRCEC, MTT
Method: The activity of the angiogenesis inhibitor polypeptide to inhibit proliferation of human retinal vascular endothelial cells was examined by MTT assay. HRCEC cells were cultured in a 37° C., 5% CO2 incubator to a density of 90% or more, and collected by trypsinization. The cells were resuspended in the culture medium and counted under a microscope to adjust the cell concentration to 3.0×10^4 cells/mL. The cell suspension was inoculated into a 96-well plate at 100 μL per well and cultured overnight at 37° C. in a 5% CO2 incubator. After the cells were completely adhered, the angiogenesis inhibitor polypeptide was added as the administration group, and Avastin was used as the positive control group, and the culture media without any drug was used as a blank control group, and the culture media were diluted to each predetermined concentration. Each dilution was separately added to a 96-well plate at 100 μL per well and incubated for 48 h at 37° C. in a 5% CO2 incubator. 20 μL of 5 mg/mL MTT was added to each well of a 96-well plate and incubation was continued for 4 h. The medium was aspirated and dissolved in 100 μL of DMSO per well. […] The formula is as follows: PI (%)=1−administration group/negative group
The test was repeated 3 times independently. The results obtained by the test were expressed as mean±SD, and a statistical T test was performed. *P<0.05 was a significant difference, and **P<0.01 was a very significant difference.

[2] = test system: corneal neovascularization in BALB/c mice; experiment: Alkali-burn corneal neovascularization in BALB/c mice (CD31 microvessel density); format: in vivo, mouse; conditions: day 14 after alkali burn, intravitreal once a day for 1 week; for Inhibition rate: corneal microvessel density vs control; for MVD: microvessel density (CD31) of cornea
Text: (1) Preparation of corneal neovascularization model induced by alkali burn in BALB/c mice: mice were randomly grouped and labeled as mPEG-HM-1 experimental group and control group, 5 […] in each group, respectively, was given mPEG-HM-1 and saline by Intravitreal injection after alkali burn, once a day for 1 week. The inflammatory reaction and neovascularization of the cornea were observed under slit lamp microscope at 1 d, 7 d, and 14 d after alkali burn. On the 14th day after alkali burn, the corneal neovascularization was recorded under the slit lamp microscope in the anterior segment of the eye. All the mice were euthanized by cervical dislocation and the eyeballs were removed, washed with saline to rid of blood, and was fixed in 4% paraformaldehyde for 1.5 h, dehydrated in PBS containing 30% sucrose overnight, embedded in OCT frozen section embedding agent, stored in −80° C. refrigerator, frozen section 8 μm, and underwent immunocytochemical detection of CD31 expression. (2) Quantitative measurement of corneal tissue microvessel density: Microvessel density (MVD) is an indicator for evaluating angiogenesis. Vascular endothelial cells were labeled with anti-CD31 antibody by immunohistochemistry, and the number of microvessels per unit area was counted to measure the degree of neovascularization. Standards for counting microvessels: Microscopically, the endothelial cells or cell clusters that are clearly demarcated from adjacent tissues in the corneal tissue and stained brown or brown are counted in the neovascularization. The number of new blood vessels in the whole section was counted under a 10×20 microscope. After the corneal tissue was photographed, the entire corneal tissue area was calculated by image processing software Image J, and the neovascular density of the whole section was determined. The test was repeated 3 times independently. The results obtained by the test were expressed as mean±SD, and a statistical T test was performed. *P<0.05 was a significant difference, and **P<0.01 was a very significant difference.

[3] = test system: carrageenan-induced toe swelling in SD rats; experiment: Carrageenan-induced acute toe swelling in rats; format: in vivo, rat; set-up: Swelling: unit not given here
Method: SD rats were divided into blank model group, dexamethasone-positive group (5 mg/kg) and mPEG-HM-1 test group. The drug was administered once a day, and the model group was given the same volume of normal saline for 3 days and fed normally. At the first hour after the last administration, 0.1 mL of 1% carrageenan was injected subcutaneously into the right hind paw of the rats to induce inflammation. The volume of the foot was measured at 1 h, 3 h, 5 h, and 7 h after inflammation. The degree of swelling of the foot was calculated according to the following formula: the degree of swelling of the foot (mL)=the volume of the foot after inflammation−the volume before inflammation. Record the number of milliliters of spilled liquid (method: use the ballpoint pen to circle as the measurement mark at the protruding point of the right joint, and then put the right hind foot of each mouse into the volume measuring device, so that the hind limb is exposed outside the cylinder, and the depth of the immersion was determined by coinciding the circle with the liquid surface. After the foot enters the liquid, the liquid level rises, and the volume of the overflow liquid is the volume of the right hind foot of the rat, and the normal volume of the right hind foot of each mouse is sequentially determined).

| Substance | rate of growth inhibition (Lung cancer tumor cells) [%] | Inhibition rate ([1]; 80 μg/mL) [%*] | A570 nm-A630 nm ([1]; 80 μg/mL) | Inhibition rate ([1]; 100 μg/mL) [%**] | A570 nm-A630 nm ([1]; 100 μg/mL) | Inhibition rate ([1]; 120 μg/mL) [%*] | A570 nm-A630 nm ([1]; 120 μg/mL) | Inhibition rate [2] [%] | MVD [2] | other results |
| --- | --- | --- | --- | --- | --- | --- | --- | --- | --- | --- |
| mPEG-bALD40k-Arg-Gly-Ala-Asp-Arg-Ala-Gly-Gly-Gly-Gly-Arg-Gly-Asp ({mPEG‑bALD 40 kDa}-RGADRAGGGGRGD) [mPEG-bALD40k-HM-1] | 56.47 ± 14.15 | 44.81 | 0.7349 ± 0.07082 | 55.03 | 0.5988 ± 0.07291 | 63.12 | 0.4911 ± 0.07534 | 45.27 | 36.52 ± 6.537** | – |
| mPEG-ALD40k-Arg-Gly-Ala-Asp-Arg-Ala-Gly-Gly-Gly-Gly-Arg-Gly-Asp ({mPEG‑ALD 40 kDa}-RGADRAGGGGRGD) [mPEG-ALD40k-HM-1] | 55.44 ± 16.13 | 43.11 | 0.7457 ± 0.07094 | 54.23 | 0.5999 ± 0.07138 | 62.08 | 0.4970 ± 0.07653 | 46.11 | 35.96 ± 6.862** | Swelling ([3]; 80 mg/kg once a day for 3 days, 1 h after carrageenan): 0.26 ± 0.14; Swelling ([3]; 80 mg/kg once a day for 3 days, 3 h after carrageenan): 0.35 ± 0.13; Swelling ([3]; 80 mg/kg once a day for 3 days, 5 h after carrageenan): 0.43 ± 0.14; Swelling ([3]; 80 mg/kg once a day for 3 days, 7 h after carrageenan): 0.33 ± 0.17; Swelling ([3]; 160 mg/kg once a day for 3 days, 1 h after carrageenan): 0.24 ± 0.13; Swelling ([3]; 160 mg/kg once a day for 3 days, 3 h after carrageenan): 0.34 ± 0.14; Swelling ([3]; 160 mg/kg once a day for 3 days, 5 h after carrageenan): 0.44 ± 0.15; Swelling ([3]; 160 mg/kg once a day for 3 days, 7 h after carrageenan): 0.34 ± 0.15 |
| mPEG-bALD5k-Arg-Gly-Ala-Asp-Arg-Ala-Gly-Gly-Gly-Gly-Arg-Gly-Asp ({mPEG‑bALD 5 kDa}-RGADRAGGGGRGD) [mPEG-bALD5k-HM-1] | 47.56 ± 12.22 | – | – | – | – | – | – | 43.10 | 37.97 ± 3.914* | Inhibition rate ([1]; 20 μg/mL): 41.82%*; A570 nm-A630 nm ([1]; 20 μg/mL): 0.7747 ± 0.08752; Inhibition rate ([1]; 40 μg/mL): 50.48%**; A570 nm-A630 nm ([1]; 40 μg/mL): 0.6594 ± 0.08003; Inhibition rate ([1]; 60 μg/mL): 62.77%*; A570 nm-A630 nm ([1]; 60 μg/mL): 04958 ± 0.07902 |
